In patent US4812393A, “Fluorescent dyes and biological and analytical uses thereof” (priority 1986, dated 1989):

Experiments:
[1] = Fluorescence emission maximum and fluorescence quantum efficiency of the dyes; type: physicochemical
Description: Representative novel dyes of this invention are listed in Table I below in reference to the illustrated structure above. Of these, Compound 4 is preferred for use in biological studies and assays because it can be used at a pH of 7 or less. In Table I, the "fluorescence quantum efficiency" was determined by procedures described by Birks in Standardization in Spectrophotometry and Luminescence Measurements, Mielenz et al (Eds.), Nat. Bureau of Standards Special Publication 466 (1977).

[2] = system: carboxyl esterase, Type I; assay: Determination of an esterase enzyme by hydrolysis of the hydrolyzable substrate (fluorometer); type: biochemical; conditions: final enzyme activity 48 I.U., HEPES pH 7.8, excitation 540 nm, emission 610 nm
Description: The hydrolyzable compound used is represented by the structure: [drawing 11]
A test solution was prepared from the following: the hydrolyzable substrate (50 μl of a solution of 0.1 mg/0.5 ml of methanol), 0.05 molar HEPES buffer (3 μl, pH 7.8) and the esterase enzyme carboxyl esterase, Type I (50 μl). A Control solution was similarly prepared by omitting the enzyme. Fluorescence of the released fluorescent dye was measured with a commercially available fluorometer when the enzyme was first added to the test solution and at various times thereafter (excitation at 540 nm and emission at 610 nm). The Control solution was similarly evaluated at the indicated times.

SMILES	Emission (λmax) ([1]; in methanol) [nm]	Fluorescence Quantum Efficiency ([1]; in methanol)	Emission (λmax) ([1]; in 5:1 water/methanol) [nm]	Fluorescence Quantum Efficiency ([1]; solvent in 5:1 water/methanol)	also measured
Cc1cc(O)cc2c1cc1c3c(cccc32)C(=O)C=C1 [Compound 1]	542	0.4	–	–	–
Cc1cc(O)cc2c1cc1c3c(cccc32)C(=O)C=C1 [Compound 2]	–	–	635	0.18	–
Cc1cc(O)c(Cl)c2c1cc1c3c(cccc32)C(=O)C=C1 [Compound 3]	629	0.55	–	–	–
Cc1cc(O)c(Cl)c2c1cc1c3c(cccc32)C(=O)C=C1 [Compound 4]	–	–	628	0.42	–
Cc1cc(OC(=O)N(C)c2ccccc2)c(Cl)c2c1cc1c3c(cccc32)C(=O)C=C1 [Compound 5]	–	–	550	0.01	–
Cc1cc(N2CCCC2)cc2c1cc1c3c(cccc32)C(=O)C=C1 [Compound 6]	655	0.52	–	–	–
CCCCOC(=O)c1cc(O)cc2c1cc1c3c(cccc32)C(=O)C=C1 [Compound 7]	525	0.4	–	–	–
CCCCOC(=O)c1cc(O)cc2c1cc1c3c(cccc32)C(=O)C=C1 [Compound 8]	–	–	630	0.3	–
CCCCOC(=O)c1cc(O)c(Cl)c2c1cc1c3c(cccc32)C(=O)C=C1 [Compound 9]	–	–	625	0.56	–
CC(=O)Oc1cc(C)c2cc3c4c(cccc4c2c1Cl)C(=O)C=C3 [Example 6]	–	–	–	–	Δ Relative Fluorescence (Minutes) 0 ([2]; 0 minutes): 8.1; Δ Relative Fluorescence (Minutes) 1 ([2]; 1 minute): 31.5; Δ Relative Fluorescence (Minutes) 2 ([2]; 2 minutes): 32.1; Δ Relative Fluorescence (Minutes) 5 ([2]; 5 minutes): 33.3
